Test system: A549 cells
Assay: Cell proliferation assay (CellTiter-Glo), cells with K-Ras G12S mutation
Assay type: cell-based
Details: Homo sapiens, 500 nM to 5 μM (mixed units), read-out: Inhibition of A549 Cells (IC50)
Summary of the method: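 A549 (K-Ras G12S) cells in RPMI-1640 with 10% heat-inactivated FBS, plated in standard or ultra-low-attachment 384-well format, treated next day with a dilution series (e.g., 10-point, 3-fold). Viability read by CellTiter-Glo luminescence about 6 days later; IC50 from four-parameter fit.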

Row | IC50 [nM] | Structure (SMILES)
1 | 500 to 5000 | N#Cc1c(N)sc2c(F)ccc(-c3c(Cl)cc4c(N5CCOC6(C5)CN(C(=O)n5cncn5)C6C5CC5)nc(OC[C@@]56CCCN5C[C@H](F)C6)nc4c3F)c12 (stereo partly drawn) [Compound 156, 2-amino-4-(6-chloro-4-(1-cyclopropyl-2-(1H-1,2,4-triazole-1-carbonyl)-5-oxa-2,8-diazaspiro[3.5]nonan-8-yl)-8-fluoro-2-(((2R,7aS)-2-fluorotetrahydro-1H-pyrrolizin-7a(5H)-yl)methoxy)quinazolin-7-yl)-7-fluorobenzo[b]thiophene-3-carbonitrile]

Same assay, conditions: Homo sapiens, ≤500 nM, read-out: Inhibition of A549 Cells (IC50)

Row | IC50 [nM] | Structure (SMILES)
2 | ≤ 500 | CC(C)[C@H]1N(C(=O)n2cnc(Cl)n2)C[C@]12CCCN(c1nc(OC[C@@]34CCCN3C[C@H](F)C4)nc3c(F)c(-c4ccc(F)c5sc(N)c(C#N)c45)c(Cl)cc13)C2 [Compound 190, 2-amino-4-(6-chloro-4-((1R,4R)-2-(3-chloro-1H-1,2,4-triazole-1-carbonyl)-1-isopropyl-2,6-diazaspiro[3.5]nonan-6-yl)-8-fluoro-2-(((2R,7aS)-2-fluorotetrahydro-1H-pyrrolizin-7a(5H)-yl)methoxy)quinazolin-7-yl)-7-fluorobenzo[b]thiophene-3-carbonitrile]
3 | ≤ 500 | C[C@H]1CC[C@]2(CN(C(=O)n3cnc(F)n3)[C@@H]2C2(C)CC2)CN1c1nc(OC[C@@]23CCCN2C[C@H](F)C3)nc2c(F)c(-c3ccc(F)c4sc(N)c(C#N)c34)c(Cl)cc12 [Compound 185, 2-amino-4-(6-chloro-8-fluoro-4-((1R,4R,7S)-2-(3-fluoro-1H-1,2,4-triazole-1-carbonyl)-7-methyl-1-(1-methylcyclopropyl)-2,6-diazaspiro[3.5]nonan-6-yl)-2-(((2R,7aS)-2-fluorotetrahydro-1H-pyrrolizin-7a(5H)-yl)methoxy)quinazolin-7-yl)-7-fluorobenzo[b]thiophene-3-carbonitrile]
4 | ≤ 500 | CC(C)[C@H]1N(C(=O)n2cnc(Cl)n2)C[C@@]12CN(c1nc(OC[C@@]34CCCN3C[C@H](F)C4)nc3c(F)c(-c4ccc(F)c5sc(N)c(C#N)c45)c(Cl)cc13)CCO2 [Compound 134, 2-amino-4-(6-chloro-4-((1R,4S)-2-(3-chloro-1H-1,2,4-triazole-1-carbonyl)-1-isopropyl-5-oxa-2,8-diazaspiro[3.5]nonan-8-yl)-8-fluoro-2-(((2R,7aS)-2-fluorotetrahydro-1H-pyrrolizin-7a(5H)-yl)methoxy)quinazolin-7-yl)-7-fluorobenzo[b]thiophene-3-carbonitrile]
5 | ≤ 500 | CCC1N(C(=O)n2cncn2)CC12CN(c1nc(OC[C@@]34CCCN3C[C@H](F)C4)nc3c(F)c(-c4ccc(F)c5sc(N)c(C#N)c45)c(Cl)cc13)CCO2 (stereo partly drawn) [Compound 112, 2-amino-4-(6-chloro-4-(1-ethyl-2-(1H-1,2,4-triazole-1-carbonyl)-5-oxa-2,8-diazaspiro[3.5]nonan-8-yl)-8-fluoro-2-(((2R,7aS)-2-fluorotetrahydro-1H-pyrrolizin-7a(5H)-yl)methoxy)quinazolin-7-yl)-7-fluorobenzo[b]thiophene-3-carbonitrile]
6 | ≤ 500 | COCC1([C@@H]2[C@H](CN(C)c3nc(OC[C@@]45CCCN4C[C@H](F)C5)nc4c(F)c(-c5ccc(F)c6sc(N)c(C#N)c56)c(Cl)cc34)CN2C(=O)n2cnc(F)n2)CC1 [Compound 120, 2-amino-4-(6-chloro-8-fluoro-4-((((2S,3R)-1-(3-fluoro-1H-1,2,4-triazole-1-carbonyl)-2-(1-(methoxymethyl)cyclopropyl)azetidin-3-yl)methyl)(methyl)amino)-2-(((2R,7aS)-2-fluorotetrahydro-1H-pyrrolizin-7a(5H)-yl)methoxy)quinazolin-7-yl)-7-fluorobenzo[b]thiophene-3-carbonitrile]
7 | ≤ 500 | CC(C)[C@H]1N(C(=O)n2cnc(F)n2)C[C@]12CCCCN(c1nc(OC[C@@]34CCCN3C[C@H](F)C4)nc3c(F)c(-c4ccc(F)c5sc(N)c(C#N)c45)c(Cl)cc13)C2 [Compound 141, 2-amino-4-(6-chloro-8-fluoro-4-((1R,4R)-2-(3-fluoro-1H-1,2,4-triazole-1-carbonyl)-1-isopropyl-2,6-diazaspiro[3.6]decan-6-yl)-2-(((2R,7aS)-2-fluorotetrahydro-1H-pyrrolizin-7a(5H)-yl)methoxy)quinazolin-7-yl)-7-fluorobenzo[b]thiophene-3-carbonitrile]
8 | ≤ 500 | CN(C[C@@H]1CN(C(=O)n2cnc(C(F)F)n2)[C@@H]1C1CCC1)c1nc(OC[C@@]23CCCN2C[C@H](F)C3)nc2c(F)c(-c3ccc(F)c4sc(N)c(C#N)c34)c(Cl)cc12 [Compound 236, 2-amino-4-(6-chloro-4-((((2R,3R)-2-cyclobutyl-1-(3-(difluoromethyl)-1H-1,2,4-triazole-1-carbonyl)azetidin-3-yl)methyl)(methyl)amino)-8-fluoro-2-(((2R,7aS)-2-fluorotetrahydro-1H-pyrrolizin-7a(5H)-yl)methoxy)quinazolin-7-yl)-7-fluorobenzo[b]thiophene-3-carbonitrile]
9 | ≤ 500 | N#Cc1c(N)sc2c(F)ccc(-c3c(Cl)cc4c(N5CCC6(C5)CN(C(=O)n5cncn5)C6C5CC5)nc(OC[C@@]56CCCN5C[C@H](F)C6)nc4c3F)c12 (single isomer, unassigned) [Compound 203]
10 | ≤ 500 | CC(C)[C@H]1N(C(=O)n2cnc(O)n2)C[C@]12CCCCN(c1nc(OC[C@@]34CCCN3C[C@H](F)C4)nc3c(F)c(-c4ccc(F)c5sc(N)c(C#N)c45)c(Cl)cc13)C2 [Compound 224, 2-amino-4-(6-chloro-8-fluoro-2-(((2R,7aS)-2-fluorotetrahydro-1H-pyrrolizin-7a(5H)-yl)methoxy)-4-((1R,4R)-2-(3-hydroxy-1H-1,2,4-triazole-1-carbonyl)-1-isopropyl-2,6-diazaspiro[3.6]decan-6-yl)quinazolin-7-yl)-7-fluorobenzo[b]thiophene-3-carbonitrile]
11 | ≤ 500 | CN(C[C@@H]1CN(C(=O)n2cnc(C#N)n2)[C@@H]1C1(C)CC1)c1nc(OC[C@@]23CCCN2C[C@H](F)C3)nc2c(F)c(-c3ccc(F)c4sc(N)c(C#N)c34)c(Cl)cc12 [Compound 237, 1-((2S,3R)-3-(((7-(2-amino-3-cyano-7-fluorobenzo[b]thiophen-4-yl)-6-chloro-8-fluoro-2-(((2R,7aS)-2-fluorotetrahydro-1H-pyrrolizin-7a(5H)-yl)methoxy)quinazolin-4-yl)(methyl)amino)methyl)-2-(1-methylcyclopropyl)azetidine-1-carbonyl)-1H-1,2,4-triazole-3-carbonitrile]
12 | ≤ 500 | CN(C(=O)n1cnc(Cl)n1)C1CCN(c2nc(OC[C@@]34CCCN3C[C@H](F)C4)nc3c(F)c(-c4ccc(F)c5sc(N)c(C#N)c45)c(Cl)cc23)C1(C)C (single isomer, unassigned) [Compound 198]
13 | ≤ 500 | C[C@H]1CC[C@]2(CN(C(=O)n3cnc(C(F)F)n3)[C@@H]2C2(C)CC2)CN1c1nc(OC[C@@]23CCCN2C[C@H](F)C3)nc2c(F)c(-c3ccc(F)c4sc(N)c(C#N)c34)c(Cl)cc12 (atropisomer, axis not shown; (aS)) [Compound 178, (R)-2-amino-4-(6-chloro-4-((1R,4R,7S)-2-(3-(difluoromethyl)-1H-1,2,4-triazole-1-carbonyl)-7-methyl-1-(1-methylcyclopropyl)-2,6-diazaspiro[3.5]nonan-6-yl)-8-fluoro-2-(((2R,7aS)-2-fluorotetrahydro-1H-pyrrolizin-7a (5H)-yl)methoxy)quinazolin-7-yl)-7-fluorobenzo[b]thiophene-3-carbonitrile]

From patent US20250381243A1, “HETEROCYCLES AND USES THEREOF” (Kumquat Biosciences Inc., priority 2022, published 2025)
